The values below come from patent US11771679B2, “Composition containing hesperetin and synergistic hypoglycemic application thereof” (ZHENGZHOU FRUIT RESEARCH INSTITUTE, CHINESE ACADEMY OF …, priority 2021, dated 2023).

The target of the assay is T1, α-glucosidase (Saccharomyces cerevisiae, UniProt P53341).
T1 construct: purchased Sigma
Nature of the assay: α-glucosidase inhibition test (pNPG substrate, OD 405 nm); CI calculated with CompuSyn (Chou-Talalay). Format: biochemical. As to conditions: for Inhibition rate: single compound. The text has this:
[drawing 3] • α-glucosidase (coming from Saccharomyces cerevisiae, Sigma); • 4-nitrophenyl-α-D-glucopyranoside (pNPG, TOKYO Chemica Industry Co., LTD); • acarbose (Acarbose, TOKYO Chemica Industry Co., LTD); • hesperetin, galangin, and formononetin (BEIJING Solarbio Technology Co., LTD); • Millipore Simplicity water purification system (Millipore, France); • sodium phosphate salt buffer solution (pH 6.8, 0.1 mol L-1); and • microplate reader TECAN infinite M200 PRO (Teacan Group Ltd., Swizerland).
an α-glucosidase solution with a concentration being 0.25 U/mL and a substrate p-nitrophenyl-α-D-glucopyranoside (pNPG) solution with a concentration being 5 mmol/mL were prepared by using a PBS buffer solution (0.1 mol/L pH 6.8).
100 μL of sample solution was added to each hole, then 40 μL of α-glucosidase (0.25 U/mL) was added, reacted for 15 min at 37° C., and then 60 μL of substrate p-nitrophenyl-α-D-glucopyranoside (5 mmol/mL) was added; and after placed at 37° C. to react for 15 min, a microplate reader measured at a wave length of 405 nm.
CI values are calculated according to CompuSyn software to evaluate synergistic effect among drugs.

T1 sequence (P53341 whole entry): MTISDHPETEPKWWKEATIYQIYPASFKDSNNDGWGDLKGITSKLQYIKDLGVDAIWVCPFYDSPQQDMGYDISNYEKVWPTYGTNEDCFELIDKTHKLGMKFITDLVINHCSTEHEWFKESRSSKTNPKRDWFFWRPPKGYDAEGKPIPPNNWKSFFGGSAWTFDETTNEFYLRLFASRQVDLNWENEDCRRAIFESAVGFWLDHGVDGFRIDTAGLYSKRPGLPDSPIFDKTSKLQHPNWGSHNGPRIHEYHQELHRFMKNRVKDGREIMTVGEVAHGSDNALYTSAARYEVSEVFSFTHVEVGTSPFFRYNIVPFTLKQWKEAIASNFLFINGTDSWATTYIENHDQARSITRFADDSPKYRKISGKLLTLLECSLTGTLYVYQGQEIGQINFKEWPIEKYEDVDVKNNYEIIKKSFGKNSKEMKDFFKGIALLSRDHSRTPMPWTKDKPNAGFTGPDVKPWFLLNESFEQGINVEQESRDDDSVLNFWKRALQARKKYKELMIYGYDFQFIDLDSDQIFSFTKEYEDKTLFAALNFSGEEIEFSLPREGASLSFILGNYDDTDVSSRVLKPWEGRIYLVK

As usually defined, the inhibition is the drop in the measured response relative to a control, in per cent. Consider `COc1c(-c2ccc(O)c(O)c2)oc2cc(O)cc(O)c2c1=O` [3-O-methyl quercetin], for which the inhibition at 2 µg/mL (read-out: Inhibition rate) was 46.2 ± 1.2%.
As for `O=c1cc(-c2ccc(O)cc2)oc2cc(O)cc(O)c12` [Apigenin], the inhibition at 6 µg/mL (read-out: Inhibition rate) is 56.1 ± 4.4%.
Consider `O=c1cc(-c2ccccc2)oc2cc(O)c(O)c(O)c12` [Baicalein], for which, under “read-out: Inhibition rate”, the inhibition at 10 µg/mL was 38.8 ± 3.3%.
For the molecule `COc1ccc(-c2coc3cc(O)cc(O)c3c2=O)cc1` [Biochanin A], the inhibition at 0.7 µg/mL (read-out: Inhibition rate) is 38.5 ± 2.1%.
Turning to `COc1ccc(-c2coc3cc(O)ccc3c2=O)cc1O` [Calycosin], the inhibition at 6 µg/mL (read-out: Inhibition rate) was 56.6 ± 4.3%.
Take `Oc1cc(O)c2cc(O)c(-c3ccc(O)c(O)c3)[o+]c2c1` [Cyanidin]: the inhibition at 0.7 µg/mL (read-out: Inhibition rate) was 47.5 ± 1.4%.
With `O=c1c(-c2ccc(O)cc2)coc2cc(O)ccc12` [Daidzein], the inhibition at 8 µg/mL (read-out: Inhibition rate) is 44.5 ± 2.5%.
For `Oc1cc(O)c2cc(O)c(-c3cc(O)c(O)c(O)c3)[o+]c2c1` [Delphinidin], for the setting “read-out: Inhibition rate”, the inhibition at 1 µg/mL is 50.2 ± 4.3%.
For `O=C1c2c(O)cc(O)cc2OC(c2ccc(O)cc2O)C1O` (stereo not shown) [Dihydromorin], for the setting “read-out: Inhibition rate”, the inhibition at 15 µg/mL is 25.7 ± 4.7%.
Turning to `O=c1c(O)c(-c2ccc(O)c(O)c2)oc2cc(O)ccc12` [Fisetin], the inhibition at 6 µg/mL (read-out: Inhibition rate) is 46.5 ± 2.3%.
With `COc1ccc(-c2coc3cc(O)ccc3c2=O)cc1` [Formononetin], under “read-out: Inhibition rate”, the inhibition at 20 µg/mL is 60.1 ± 5.3% and the inhibition at 30 µg/mL was 65.2 ± 4.3%.
As to `O=c1c(O)c(-c2ccccc2)oc2cc(O)cc(O)c12` [Galangin], where the note is “read-out: Inhibition rate”, the inhibition at 100 µg/mL is 56.3 ± 4.5% and the inhibition at 150 µg/mL was 84.4 ± 7.5%.
Turning to `COc1cc(O)c2c(=O)cc(-c3ccc(O)cc3)oc2c1` [Genkwanin], the inhibition at 35 µg/mL (read-out: Inhibition rate) is 70.1 ± 5.5%.
For the molecule `COc1ccc(C2CC(=O)c3c(O)cc(O)cc3O2)cc1O` (stereo not shown) [Hesperetin], under “read-out: Inhibition rate”, the inhibition at 30 µg/mL is 45.2 ± 3.2% and the inhibition at 50 µg/mL was 63.4 ± 4.2%.
For the molecule `O=C(/C=C/c1ccc(O)cc1)c1ccc(O)cc1O` [Isoliquiritigenin], the inhibition at 4 µg/mL (read-out: Inhibition rate) is 35.2 ± 2.5%.
For the molecule `COc1ccc(-c2oc3cc(O)cc(O)c3c(=O)c2O)cc1` [Kaempferide], the inhibition at 5 µg/mL (read-out: Inhibition rate) was 30.8 ± 1.3%.
For `O=c1cc(-c2ccc(O)c(O)c2)oc2cc(O)cc(O)c12` [Luteolin], for the setting “read-out: Inhibition rate”, the inhibition at 1 µg/mL was 45.5 ± 2.7%.
Same read-out and setting: then `O=c1c(O)c(-c2ccc(O)cc2O)oc2cc(O)cc(O)c12` [Morin], with 41.2 ± 2.7%; and `O=c1c(O)c(-c2cc(O)c(O)c(O)c2)oc2cc(O)cc(O)c12` [Myricetin], with 41.2 ± 1.5%.
Consider `O=C1C[C@@H](c2ccc(O)cc2)Oc2cc(O)cc(O)c21` [Naringenin], for which, where the note is “read-out: Inhibition rate”, the inhibition at 25 µg/mL was 50.5 ± 4.3%.
For the molecule `O=C(CCc1ccc(O)cc1)c1c(O)cc(O)cc1O` [Phloretin], where the note is “read-out: Inhibition rate”, the inhibition at 8 µg/mL is 46.3 ± 2.7%.
For `COc1c(-c2ccc(O)c(O)c2)oc2cc(O[C@@H]3OC(C)[C@@H](O)C(O)C3O)cc(O)c2c1=O` (stereo partly shown) [Vincetoxicoside], the inhibition at 12 µg/mL (read-out: Inhibition rate) was 48.7 ± 2.1%.
On to `C[C@H]1O[C@H](O[C@H]2[C@H](O)[C@@H](O)[C@@H](O[C@H]3[C@H](O)[C@@H](O)C(O)O[C@@H]3CO)O[C@@H]2CO)[C@H](O)[C@@H](O)[C@@H]1N[C@H]1C=C(CO)[C@@H](O)[C@H](O)[C@H]1O` (stereo partly shown) [acarbose], for which, for the setting “read-out: Inhibition rate”, the inhibition at 350 µg/mL was 46.2 ± 3.5%.
Take Chrysin: the Inhibition rate (100 μg/mL) is on record as 51.2 ± 5.5%.
For Vitexin, the Inhibition rate (10 μg/mL) is on record as 29.2 ± 1.4%.
